What all share (assay): MIC by microdilution
What all share (assay type): cell-based

The test system of assay [1] is S. aureus subsp. aureus Rosenbach (ATCC 25923). To be noted: Staphylococcus aureus, ATCC25923, read-out: MIC, SA.
In assay [2] the test system is P. aeruginosa (Schroeter) Migula (ATCC 27853). The settings on record: Pseudomonas aeruginosa, ATCC27853, read-out: MIC, PA.
For assay [3], the system named is Salmonella enterica subsp. enterica serovar Typhimurium (ATCC 14028). The settings on record: ATCC14028|TYPHIMURIUM, read-out: MIC, ST.
Assay [4] deals with E. coli (Migula) Castellani and Chalmers (ATCC 25922). The settings on record: Escherichia coli, ATCC25922, read-out: MIC, EC.

Converted amounts (≈) assume the structure as drawn.

Results on 1 molecule are retold here after paper PMC9386805 (ACS Omega, 2022).

Usually MIC stands for the lowest concentration found to suppress growth.

On to `CNC(C)C1CCC(N)C(OC2C(N)CC(N)C(OC3OCC(C)(O)C(NC)C3O)C2O)O1` (stereo not shown) [gentamicin], for which the minimal inhibitory concentration (MIC) in assay [1] was 4 µg/mL (≈ 8.38 µM); in assay [2], 4 µg/mL (≈ 8.38 µM); in assay [3], 2 µg/mL (≈ 4.19 µM); in assay [4], 8 µg/mL (≈ 16.8 µM).
